Nine compounds from PubChem BioAssay AID1259407 (Chemical Carcinogenesis Research Information System (CCRIS), 2018) can be followed below.

Calls of active or inactive are those of the source. The rule behind the calls is not given here.

The data set deals with CCRIS mutagenicity, Ames/micronucleus/aberration tests. Kind of data set: CCRIS mutagenicity studies.
Setting [1] is: Test System: AMES SALMONELLA TYPHIMURIUM, Strain/Indicator: TA98, Metabolic Activation: NONE, Method: PREINCUBATION
[2] abbreviates: Test System: AMES SALMONELLA TYPHIMURIUM, Strain/Indicator: TA98, Metabolic Activation: NONE, Method: STANDARD PLATE.
Where [3] appears, read: Test System: AMES SALMONELLA TYPHIMURIUM, Strain/Indicator: TA100, Metabolic Activation: NONE, Method: STANDARD PLATE.
Setting [4] is: Test System: AMES SALMONELLA TYPHIMURIUM, Strain/Indicator: TA1535, Metabolic Activation: NONE, Method: STANDARD PLATE.

For `S=[Se]`, the mutagenic call is, setting by setting: (End Point: IN VITRO CHROMOSOMAL ABERRATIONS, Test System: CHO-LB CELLS, Metabolic Activation: NONE) “active; positive”; (End Point: IN VITRO CHROMOSOMAL ABERRATIONS, Test System: CHO-LB CELLS, Metabolic Activation: RAT, LIVER, S-9, AROCLOR 1254) “active; positive”; (Test System: AMES SALMONELLA TYPHIMURIUM, Strain/Indicator: TA97, Metabolic Activation: HAMSTER, LIVER, S-9, AROCLOR 1254 (5 OR 10%), Method: PREINCUBATION) “active; positive”; (Test System: AMES SALMONELLA TYPHIMURIUM, Strain/Indicator: TA97, Metabolic Activation: HAMSTER, LIVER, S-9, AROCLOR 1254 (30%), Method: PREINCUBATION) “inactive; negative”; (Test System: AMES SALMONELLA TYPHIMURIUM, Strain/Indicator: TA97, Metabolic Activation: NONE, Method: PREINCUBATION) “active; positive”; (Test System: AMES SALMONELLA TYPHIMURIUM, Strain/Indicator: TA97, Metabolic Activation: RAT, LIVER, S-9, AROCLOR 1254 (5 OR 10%), Method: PREINCUBATION) “active; positive”. Further, the mutagenic call was “inactive; negative” (Test System: AMES SALMONELLA TYPHIMURIUM, Strain/Indicator: TA97, Metabolic Activation: RAT, LIVER, S-9, AROCLOR 1254 (30%), Method: PREINCUBATION); “inactive; negative” (Test System: AMES SALMONELLA TYPHIMURIUM, Strain/Indicator: TA98, Metabolic Activation: HAMSTER, LIVER, S-9, AROCLOR 1254 (10%), Method: PREINCUBATION); “inactive; negative” under setting [1]; “inactive; negative” (Test System: AMES SALMONELLA TYPHIMURIUM, Strain/Indicator: TA98, Metabolic Activation: RAT, LIVER, S-9, AROCLOR 1254 (10%), Method: PREINCUBATION); “inactive; negative” (Test System: AMES SALMONELLA TYPHIMURIUM, Strain/Indicator: TA100, Metabolic Activation: HAMSTER, LIVER, S-9, AROCLOR 1254 (5%), Method: PREINCUBATION); “active; positive” (Test System: AMES SALMONELLA TYPHIMURIUM, Strain/Indicator: TA100, Metabolic Activation: HAMSTER, LIVER, S-9, AROCLOR 1254 (10%), Method: PREINCUBATION). Further, the mutagenic call runs as follows: (Test System: AMES SALMONELLA TYPHIMURIUM, Strain/Indicator: TA100, Metabolic Activation: NONE, Method: PREINCUBATION) “inactive; negative”; (Test System: AMES SALMONELLA TYPHIMURIUM, Strain/Indicator: TA100, Metabolic Activation: RAT, LIVER, S-9, AROCLOR 1254 (5 OR 10%), Method: PREINCUBATION) “inactive; negative”; (Test System: AMES SALMONELLA TYPHIMURIUM, Strain/Indicator: TA1535, Metabolic Activation: HAMSTER, LIVER, S-9, AROCLOR 1254 (10%), Method: PREINCUBATION) “inactive; negative”; (Test System: AMES SALMONELLA TYPHIMURIUM, Strain/Indicator: TA1535, Metabolic Activation: NONE, Method: PREINCUBATION) “inactive; negative”; (Test System: AMES SALMONELLA TYPHIMURIUM, Strain/Indicator: TA1535, Metabolic Activation: RAT, LIVER, S-9, AROCLOR 1254 (10%), Method: PREINCUBATION) “inactive; negative”.

`ONc1ccc(I)cc1`: the mutagenic call (Test System: E. COLI, Strain/Indicator: WP2 UVRA, Metabolic Activation: NONE, Method: FLUCTUATION TEST) was “inactive; negative”.

Take `COc1cc(N)c(C)cc1N`: the mutagenic call was “inactive; negative” under setting [2]; “inactive; negative” (Test System: AMES SALMONELLA TYPHIMURIUM, Strain/Indicator: TA98, Metabolic Activation: RAT, LIVER, S-9, AROCLOR 1254, Method: STANDARD PLATE); “inactive; negative” under setting [3]; “inactive; negative” (Test System: AMES SALMONELLA TYPHIMURIUM, Strain/Indicator: TA100, Metabolic Activation: RAT, LIVER, S-9, AROCLOR 1254, Method: STANDARD PLATE); “inactive; negative” under setting [4]; “inactive; negative” (Test System: AMES SALMONELLA TYPHIMURIUM, Strain/Indicator: TA1535, Metabolic Activation: RAT, LIVER, S-9, AROCLOR 1254, Method: STANDARD PLATE). Besides, the mutagenic call reads like this: (Test System: AMES SALMONELLA TYPHIMURIUM, Strain/Indicator: TA1537, Metabolic Activation: NONE, Method: STANDARD PLATE) “inactive; negative”; (Test System: AMES SALMONELLA TYPHIMURIUM, Strain/Indicator: TA1537, Metabolic Activation: RAT, LIVER, S-9, AROCLOR 1254, Method: STANDARD PLATE) “inactive; negative”; (Test System: AMES SALMONELLA TYPHIMURIUM, Strain/Indicator: TA1538, Metabolic Activation: NONE, Method: STANDARD PLATE) “inactive; negative”; (Test System: AMES SALMONELLA TYPHIMURIUM, Strain/Indicator: TA1538, Metabolic Activation: RAT, LIVER, S-9, AROCLOR 1254, Method: STANDARD PLATE) “inactive; negative”.

With `O=CC1CO1` (stereo not given), the mutagenic call by setting is: under setting [3], “active; positive”; under setting [4], “active; positive”; (Test System: E. COLI, Strain/Indicator: WP2 UVRA, Metabolic Activation: HAMSTER, LIVER, S-9, AROCLOR 1254, Method: PREINCUBATION) “active; positive”; (Test System: E. COLI, Strain/Indicator: WP2 UVRA, Metabolic Activation: HAMSTER, LIVER, S-9, AROCLOR 1254, Method: STANDARD PLATE) “active; positive”; (Test System: E. COLI, Strain/Indicator: WP2 UVRA, Metabolic Activation: HAMSTER, LIVER, S-9, Method: PREINCUBATION) “active; positive”; (Test System: E. COLI, Strain/Indicator: WP2 UVRA, Metabolic Activation: HAMSTER, LIVER, S-9, Method: STANDARD PLATE) “active; positive”. Moreover, the mutagenic call was “active; positive” (Test System: E. COLI, Strain/Indicator: WP2 UVRA, Metabolic Activation: MOUSE, LIVER, S-9, AROCLOR 1254, Method: PREINCUBATION); “active; positive” (Test System: E. COLI, Strain/Indicator: WP2 UVRA, Metabolic Activation: MOUSE, LIVER, S-9, AROCLOR 1254, Method: STANDARD PLATE); “active; positive” (Test System: E. COLI, Strain/Indicator: WP2 UVRA, Metabolic Activation: MOUSE, LIVER, S-9, Method: PREINCUBATION); “active; positive” (Test System: E. COLI, Strain/Indicator: WP2 UVRA, Metabolic Activation: MOUSE, LIVER, S-9, Method: STANDARD PLATE); “active; positive” (Test System: E. COLI, Strain/Indicator: WP2 UVRA, Metabolic Activation: NONE, Method: PREINCUBATION); “active; positive” (Test System: E. COLI, Strain/Indicator: WP2 UVRA, Metabolic Activation: NONE, Method: STANDARD PLATE). Further, the mutagenic call is “active; positive” (Test System: E. COLI, Strain/Indicator: WP2 UVRA, Metabolic Activation: RAT, LIVER, S-9, AROCLOR 1254, Method: PREINCUBATION); “active; positive” (Test System: E. COLI, Strain/Indicator: WP2 UVRA, Metabolic Activation: RAT, LIVER, S-9, AROCLOR 1254, Method: STANDARD PLATE); “active; positive” (Test System: E. COLI, Strain/Indicator: WP2 UVRA, Metabolic Activation: RAT, LIVER, S-9, Method: PREINCUBATION); “active; positive” (Test System: E. COLI, Strain/Indicator: WP2 UVRA, Metabolic Activation: RAT, LIVER, S-9, Method: STANDARD PLATE); “active; positive” (Test System: UDS HUMAN FIBROBLASTS, Strain/Indicator: THY INCORP (NON-S-PHASE), Metabolic Activation: NONE, Method: LIQUID SCINTILLATION COUNTING).

For `CCC[CH2][Sn]([Cl])([Cl])[Cl]`, the mutagenic call (Test System: AMES SALMONELLA TYPHIMURIUM, Strain/Indicator: TA98, Metabolic Activation: NONE, Method: SUSPENSION/PLATE) was “inactive; negative” and the mutagenic call (Test System: AMES SALMONELLA TYPHIMURIUM, Strain/Indicator: TA100, Metabolic Activation: NONE, Method: SUSPENSION/PLATE) was “inactive; negative”.

On to `ClCc1cc2cccc3ccc4c5ccccc5cc1c4c32`, for which the mutagenic call reads like this: under setting [2], “active; positive”; under setting [3], “active; positive”.

As for `O=C1C=Cc2ccc3c4c(ccc1c24)C(=O)c1ccccc1-3`, the mutagenic call (Test System: CHINESE HAMSTER V-79, Strain/Indicator: V-79/8-AZAGUANINE, Metabolic Activation: NONE, Method: STANDARD PLATE) is “active; positive”.

In the case of `CCC(=O)N(O)c1ccc(/C=C/c2ccccc2)cc1`, the mutagenic call runs as follows: under setting [1], “inactive; negative”; (Test System: AMES SALMONELLA TYPHIMURIUM, Strain/Indicator: TA98, Metabolic Activation: RAT, LIVER, CYTOSOL, Method: PREINCUBATION) “active; positive”; (Test System: AMES SALMONELLA TYPHIMURIUM, Strain/Indicator: TA98, Metabolic Activation: RAT, LIVER, MICROSOMES, Method: PREINCUBATION) “active; positive”.

On to `O=C(O)c1oc([N+](=O)[O-])c(-c2ccccc2)c1-c1ccccc1`, for which the mutagenic call under setting [2] was “inactive; negative” and the mutagenic call under setting [3] was “active; positive”.
